Read-outs that look alike come from different tables or passages of the source. Numbered stars: 1 amine (or outer) side, 2 acyl side, 3 side chain; on linkers, the order of the positions; unused ones are H or OH. Square brackets hold non-standard residues; d marks the D form. Peptide text beside a SMILES is read from it. * marks the point of attachment. Trp(βS-Me,7-OMe) = COc1cccc2c([C@H](C)[C@H](N)C(=O)O)c[nH]c12; dPro(trans-4-NMe3+) = C[N+](C)(C)[C@@H]1CN[C@@H](C(=O)O)C1; X51 = CCC[C@@H](c1c[nH]c2ccccc12)[C@H](N[*:1])C(=O)[*:2]; Trp(1-CH2COOH) = N[C@@H](Cc1cn(CC(=O)O)c2ccccc12)C(=O)O; Phe(4-SO2NH2) = N[C@@H](Cc1ccc(S(N)(=O)=O)cc1)C(=O)O; Ala(indazol-1-yl) = N[C@@H](Cn1ncc2ccccc21)C(=O)O; Trp(7-CN) = N#Cc1cccc2c(C[C@H](N)C(=O)O)c[nH]c12; Trp(7-Cl) = N[C@@H](Cc1c[nH]c2c(Cl)cccc12)C(=O)O; X55 = O=C([C@H]1C[C@H](c2nn[nH]n2)CN1[*:1])[*:2]; Ala(pyrimidin-5-yl) = N[C@@H](Cc1cncnc1)C(=O)O; Phe(4-CONH2) = NC(=O)c1ccc(C[C@H](N)C(=O)O)cc1; Phe(4-COOH) = N[C@@H](Cc1ccc(C(=O)O)cc1)C(=O)O; Trp(7-aza) = N[C@@H](Cc1c[nH]c2ncccc12)C(=O)O; Asn(3S-OH) = NC(=O)[C@@H](O)[C@H](N)C(=O)O; X47 = NC[C@H]1C[C@H](C(=O)[*:2])N([*:1])C1; X46 = Nc1ncc(C[C@H](N[*:1])C(=O)[*:2])cn1; dPro(4S-NH2) = N[C@@H]1CN[C@@H](C(=O)O)C1; Pip(5R-OH) = O=C(O)[C@@H]1CC[C@@H](O)CN1; X1 = O=C([C@@H]1CC[C@H](N[*:1])C1)[*:2]; 4Pal = N[C@@H](Cc1ccncc1)C(=O)O; dHyp = O=C(O)[C@H]1C[C@H](O)CN1; αMeS = C[C@](N)(CO)C(=O)O; Carboxymethyl = O=C(O)C*; Nle = CCCC[C@H](N)C(=O)O; Sar = CNCC(=O)O
Experiments:
[1] = molecular target: T1, TNFα-induced NF-κB signal transduction pathway (TNFR1 signaling) in THP-1 cells (Homo sapiens, UniProt P19438); assay: THP-1 Lucia NF-κB reporter cell assay, inhibition of TNFα-induced NF-κB signaling; type: cell-based; conditions: THP-1 NF-κB Lucia reporter cells, 10 ng/mL TNFα, 16-18 h, secreted luciferase; read-out: THP-1 IC50
T1 sequence (P19438 30-455): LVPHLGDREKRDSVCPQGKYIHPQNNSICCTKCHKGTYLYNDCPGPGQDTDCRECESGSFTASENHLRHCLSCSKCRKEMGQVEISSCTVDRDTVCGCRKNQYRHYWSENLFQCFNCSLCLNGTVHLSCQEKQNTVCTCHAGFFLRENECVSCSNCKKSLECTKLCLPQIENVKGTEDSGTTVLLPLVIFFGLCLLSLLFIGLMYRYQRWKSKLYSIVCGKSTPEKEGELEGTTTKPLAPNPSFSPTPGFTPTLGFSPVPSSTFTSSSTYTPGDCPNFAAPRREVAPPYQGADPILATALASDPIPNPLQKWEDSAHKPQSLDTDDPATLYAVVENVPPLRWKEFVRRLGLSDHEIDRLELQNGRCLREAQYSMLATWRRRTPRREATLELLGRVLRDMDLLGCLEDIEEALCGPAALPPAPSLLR
Summary of the method: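 Inhibition of TNFR1-driven NF-κB activation was measured as luminescence of secreted reporter luciferase following overnight (16-18 h) stimulation with 10 ng/mL TNFα.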

[2] = molecular target: T2, human soluble TNFR1 (sTNFR1) (Homo sapiens, UniProt P19438); assay: Human sTNFR1-peptide displacement assay (LanthaScreen Eu TR-FRET binding assay)
T2 construct: made in house; host or cells: Sf21 (baculovirus)
T2 sequence (P19438 with tags, fused parts or gaps): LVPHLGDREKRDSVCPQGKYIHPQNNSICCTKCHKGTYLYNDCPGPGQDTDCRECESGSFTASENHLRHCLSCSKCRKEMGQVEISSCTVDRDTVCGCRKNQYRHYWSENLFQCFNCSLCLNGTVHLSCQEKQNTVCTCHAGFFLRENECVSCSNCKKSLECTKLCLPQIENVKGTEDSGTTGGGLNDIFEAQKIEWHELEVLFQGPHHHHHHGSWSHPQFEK
Experimental: A. Procedure for Human sTNFR1-Peptide Displacement Assay
The affinity was determined using LanthaScreen Eu-based time-resolved fluorescence resonance energy transfer (TR-FRET)-based binding assay.
A TR-FRET assay measuring the displacement of biotinylated peptide SEQ ID NO. 1 from human soluble TNFR1 (sTNFR1) in a pre-formed complex by a macrocyclic peptide yields the affinity (Kd^app) of the cyclic peptide for sTNFR1. The reagents for the assay include: the C′-terminally 6His-tagged sTNFR1 (residues 1-211) protein purified from a Sf21 baculovirus expression system, the biotin-tagged B0372 peptide described in section “Preparation of Final Compounds”, part E, the LanthaScreen™ anti-His Tag Europium donor (Life Technologies Corporation (San Diego, CA), cat. #PV5597), and a streptavidin-conjugate Alexa Fluor™ 647 acceptor (Invitrogen (Waltham, MA), cat. #S32357). Time-resolved TR-FRET is achieved when sTNFR1 is bound to biotinylated peptide SEQ ID NO. 1 through coupling of the donor and acceptor FRET pair.
100 nM biotinylated peptide SEQ ID NO. […] 100 nM biotinylated peptide SEQ ID NO. 1 was chosen as it reflects the ˜Kd for this complex. After 30 min at ambient temperature, each test peptide (2 mM stock in DMSO) is titrated in a 20 point, ˜3-fold discrete dose-response using an acoustic-dispense liquid handler. Specifically, 80 nL of peptide/DMSO is transferred into a ProxiPlate-384 Plus 384-well assay plate (PerkinElmer, cat. #6008289). To this plate, 8 μL of the previously formed sTNFR 1-biotinylated peptide SEQ ID NO. 1 complex is added and allowed to reach binding equilibrium with the test peptide at ambient temperature for 90 min.
The TR-FRET signal is measured with the following EnVision® settings: excitation laser at 337 nm; emission1=615 nm, emission2=665 nm, LANCE/DELFIA dichroic mirror, delay time=[…]. The signal of each well is determined as the ratio of the emission at 665 nm to that at 615 nm. Percent displacement is determined by normalization to control wells containing DMSO (0%) or a saturating concentration of a displaceable peptide (100%). The %-effect as a function of peptide concentration is fit to a five-parameter logistic fit based on the Morrison equation to account for tight binding kinetics.

Row | Structure (SMILES) | IC50 [1] [nM] | Kd [2] [nM] | Kd ([2]; displacement of biotinylated peptide SEQ ID NO. 1 from sTNFR1, 20 point titration, 5-parameter fit based on Morrison equation (tight binding), read-out: TR-FRET Kd^app) [nM]
1 | CCCC[C@@H]1NC(=O)[C@@H]2CC[C@@H](C2)NC(=O)[C@H]([C@@H](C)c2c[nH]c3c(OC)cccc23)NC(=O)CN(C)C(=O)[C@H](Cc2ccc(OCC(=O)O)cc2)NC(=O)[C@H](Cc2cnc(N)nc2)NC(=O)[C@](C)(CO)NC(=O)[C@H](Cc2c[nH]c3c(C#N)cccc23)NC(=O)[C@H](Cc2ccc(OCC(=O)O)cc2)NC(=O)[C@H](CC(N)=O)NC(=O)[C@H]2C[C@H](O)CN2C(=O)[C@H](Cc2cn(CC(=O)O)c3ccccc23)NC(=O)[C@@H]2CC[C@@H](O)CN2C(=O)[C@H](Cc2ccncc2)NC1=O [SEQ ID NO. 6] (cyclo([4Pal][Pip(5R-OH)][Trp(1-CH2COOH)][dHyp]NY(Carboxymethyl)[Trp(7-CN)][αMeS][X46]Y(Carboxymethyl)[Sar][Trp(βS-Me,7-OMe)][X1][Nle])) | 0.8 | 0.08 | –
2 | CCCC[C@@H]1NC(=O)[C@@H]2CC[C@@H](C2)NC(=O)[C@H]([C@@H](C)c2c[nH]c3c(OC)cccc23)NC(=O)CN(C)C(=O)[C@H](Cc2ccc(C(=O)O)cc2)NC(=O)[C@H](Cc2ccc(C(N)=O)cc2)NC(=O)[C@](C)(CO)NC(=O)[C@H](Cc2c[nH]c3c(Cl)cccc23)NC(=O)[C@H](Cc2ccc(C(=O)O)cc2)NC(=O)[C@H](CC(N)=O)NC(=O)[C@H]2C[C@H](c3nn[nH]n3)CN2C(=O)[C@H](Cc2c[nH]c3ccccc23)NC(=O)[C@@H]2CC[C@@H](O)CN2C(=O)[C@H](Cc2ccncc2)NC1=O [SEQ ID NO. 11] (cyclo([4Pal][Pip(5R-OH)]W[X55]N[Phe(4-COOH)][Trp(7-Cl)][αMeS][Phe(4-CONH2)][Phe(4-COOH)][Sar][Trp(βS-Me,7-OMe)][X1][Nle])) | 0.7 | 0.07 | –
3 | CCCC[C@@H]1NC(=O)[C@@H]2CC[C@@H](C2)NC(=O)[C@H]([C@@H](C)c2c[nH]c3c(OC)cccc23)NC(=O)CN(C)C(=O)[C@H](Cc2ccc(C(=O)O)cc2)NC(=O)[C@H](Cc2ccc(C(N)=O)cc2)NC(=O)[C@](C)(CO)NC(=O)[C@H](Cc2c[nH]c3c(Cl)cccc23)NC(=O)[C@H](Cc2ccc(C(=O)O)cc2)NC(=O)[C@H](CC(N)=O)NC(=O)[C@H]2C[C@H](CN)CN2C(=O)[C@H](Cc2c[nH]c3ccccc23)NC(=O)[C@@H]2CC[C@@H](O)CN2C(=O)[C@H](Cc2ccncc2)NC1=O [SEQ ID NO. 15] (cyclo([4Pal][Pip(5R-OH)]W[X47]N[Phe(4-COOH)][Trp(7-Cl)][αMeS][Phe(4-CONH2)][Phe(4-COOH)][Sar][Trp(βS-Me,7-OMe)][X1][Nle])) | 0.5 | 0.1 | –
4 | CCCC[C@@H]1NC(=O)[C@@H]2CC[C@@H](C2)NC(=O)[C@H]([C@@H](C)c2c[nH]c3c(OC)cccc23)NC(=O)CN(C)C(=O)[C@H](Cc2ccc(C(=O)O)cc2)NC(=O)[C@H](Cc2ccc(C(N)=O)cc2)NC(=O)[C@](C)(CO)NC(=O)[C@H](Cc2c[nH]c3c(C#N)cccc23)NC(=O)[C@H](Cc2ccncc2)NC(=O)[C@H]([C@H](O)C(N)=O)NC(=O)[C@H]2C[C@H](O)CN2C(=O)[C@H](Cc2c[nH]c3ccccc23)NC(=O)[C@@H]2CC[C@@H](O)CN2C(=O)[C@H](Cc2ccncc2)NC1=O [SEQ ID NO. 25] (cyclo([4Pal][Trp(7-CN)][αMeS][Phe(4-CONH2)][Phe(4-COOH)][Sar][Trp(βS-Me,7-OMe)][X1][Nle][4Pal][Pip(5R-OH)]W[dHyp][Asn(3S-OH)])) | 0.8 | 0.04 | –
5 | CCCC[C@@H]1NC(=O)[C@@H]2CC[C@@H](C2)NC(=O)[C@H]([C@@H](CCC)c2c[nH]c3ccccc23)NC(=O)CN(C)C(=O)[C@H](Cc2ccc(C(=O)O)cc2)NC(=O)[C@H](Cc2ccc(C(N)=O)cc2)NC(=O)[C@](C)(CO)NC(=O)[C@H](Cc2c[nH]c3c(Cl)cccc23)NC(=O)[C@H](Cc2ccc(C(=O)O)cc2)NC(=O)[C@H](CC(N)=O)NC(=O)[C@H]2C[C@H](O)CN2C(=O)[C@H](Cc2c[nH]c3ccccc23)NC(=O)[C@@H]2CC[C@@H](O)CN2C(=O)[C@H](Cc2ccncc2)NC1=O [SEQ ID NO. 27] (cyclo([4Pal][Pip(5R-OH)]W[dHyp]N[Phe(4-COOH)][Trp(7-Cl)][αMeS][Phe(4-CONH2)][Phe(4-COOH)][Sar][X51][X1][Nle])) | 0.5 | 0.1 | –
6 | CCCC[C@@H]1NC(=O)[C@@H]2CC[C@@H](C2)NC(=O)[C@H]([C@@H](C)c2c[nH]c3c(OC)cccc23)NC(=O)CN(C)C(=O)[C@H](Cc2ccc(C(=O)O)cc2)NC(=O)[C@H](Cc2ccc(S(N)(=O)=O)cc2)NC(=O)[C@](C)(CO)NC(=O)[C@H](Cc2c[nH]c3c(C#N)cccc23)NC(=O)[C@H](Cc2ccncc2)NC(=O)[C@H](CC(N)=O)NC(=O)[C@H]2C[C@H](OCC(=O)O)CN2C(=O)[C@H](Cc2c[nH]c3ncccc23)NC(=O)[C@@H]2CC[C@@H](O)CN2C(=O)[C@H](Cc2ccncc2)NC1=O [SEQ ID NO. 31] (cyclo([4Pal][Trp(7-CN)][αMeS][Phe(4-SO2NH2)][Phe(4-COOH)][Sar][Trp(βS-Me,7-OMe)][X1][Nle][4Pal][Pip(5R-OH)][Trp(7-aza)][dHyp](Carboxymethyl)N)) | 0.4 | – | 0.04
7 | CCCC[C@@H]1NC(=O)[C@@H]2CC[C@@H](C2)NC(=O)[C@H]([C@@H](C)c2c[nH]c3c(OC)cccc23)NC(=O)CN(C)C(=O)[C@H](Cc2ccc(OCC(=O)O)cc2)NC(=O)[C@H](Cc2ccc(S(N)(=O)=O)cc2)NC(=O)[C@](C)(CO)NC(=O)[C@H](Cc2c[nH]c3c(C#N)cccc23)NC(=O)[C@H](Cc2ccc(OCC(=O)O)cc2)NC(=O)[C@H](CC(N)=O)NC(=O)[C@H]2C[C@H](N)CN2C(=O)[C@H](Cc2c[nH]c3ccccc23)NC(=O)[C@@H]2CC[C@@H](O)CN2C(=O)[C@H](Cc2cncnc2)NC1=O [SEQ ID NO. 37] (cyclo(NY(Carboxymethyl)[Trp(7-CN)][αMeS][Phe(4-SO2NH2)]Y(Carboxymethyl)[Sar][Trp(βS-Me,7-OMe)][X1][Nle][Ala(pyrimidin-5-yl)][Pip(5R-OH)]W[dPro(4S-NH2)])) | 0.6 | 0.09 | –
8 | CCCC[C@@H]1NC(=O)[C@@H]2CC[C@@H](C2)NC(=O)[C@H]([C@@H](C)c2c[nH]c3c(OC)cccc23)NC(=O)CN(C)C(=O)[C@H](Cc2ccc(OCC(=O)O)cc2)NC(=O)[C@H](Cc2ccc(S(N)(=O)=O)cc2)NC(=O)[C@](C)(CO)NC(=O)[C@H](Cc2c[nH]c3c(C#N)cccc23)NC(=O)[C@H](Cc2ccc(OCC(=O)O)cc2)NC(=O)[C@H](CC(N)=O)NC(=O)[C@H]2C[C@H]([N+](C)(C)C)CN2C(=O)[C@H](Cn2ncc3ccccc32)NC(=O)[C@@H]2CC[C@@H](O)CN2C(=O)[C@H](Cc2cncnc2)NC1=O [SEQ ID NO. 43] (cyclo(NY(Carboxymethyl)[Trp(7-CN)][αMeS][Phe(4-SO2NH2)]Y(Carboxymethyl)[Sar][Trp(βS-Me,7-OMe)][X1][Nle][Ala(pyrimidin-5-yl)][Pip(5R-OH)][Ala(indazol-1-yl)][dPro(trans-4-NMe3+)])) | 0.6 | 0.09 | –
